According to the kinase profiling compilation of Christmann-Franck et al. (2016):

Key:
Conditions in all cases: compound 10.0 µM
BMPR1A (human) = BMPR1A (human) (UniProt P36894)
CAMK2D (human) = CAMK2D (human) (UniProt Q13557)
CAMKK2 (human) = CAMKK2 (human) (UniProt Q96RR4)
CDK13 (human) = CDK13 (human) (UniProt Q14004)
CDK14 (human) = CDK14 (human) (UniProt O94921)
CDKL2 (human) = CDKL2 (human) (UniProt Q92772)
CDKL3 (human) = CDKL3 (human) (UniProt Q8IVW4)
CLK3 (human) = CLK3 (human) (UniProt P49761)
Chain of CLK3 (human) (P49761 whole entry, looked up): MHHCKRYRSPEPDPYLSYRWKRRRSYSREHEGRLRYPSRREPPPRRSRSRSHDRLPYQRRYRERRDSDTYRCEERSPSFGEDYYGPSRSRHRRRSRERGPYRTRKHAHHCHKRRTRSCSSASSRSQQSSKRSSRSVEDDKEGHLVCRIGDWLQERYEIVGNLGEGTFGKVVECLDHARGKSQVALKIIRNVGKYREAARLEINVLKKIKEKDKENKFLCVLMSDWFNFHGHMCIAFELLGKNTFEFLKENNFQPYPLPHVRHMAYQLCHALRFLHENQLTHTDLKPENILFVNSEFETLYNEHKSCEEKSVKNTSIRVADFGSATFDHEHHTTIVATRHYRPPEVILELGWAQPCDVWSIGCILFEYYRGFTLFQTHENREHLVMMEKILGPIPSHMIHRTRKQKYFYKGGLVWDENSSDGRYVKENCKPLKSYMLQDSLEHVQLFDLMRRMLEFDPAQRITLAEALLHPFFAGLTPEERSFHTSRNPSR

CLK4 (human) = CLK4 (human) (UniProt Q9HAZ1)
Chain of CLK4 (human) (Q9HAZ1 whole entry, looked up): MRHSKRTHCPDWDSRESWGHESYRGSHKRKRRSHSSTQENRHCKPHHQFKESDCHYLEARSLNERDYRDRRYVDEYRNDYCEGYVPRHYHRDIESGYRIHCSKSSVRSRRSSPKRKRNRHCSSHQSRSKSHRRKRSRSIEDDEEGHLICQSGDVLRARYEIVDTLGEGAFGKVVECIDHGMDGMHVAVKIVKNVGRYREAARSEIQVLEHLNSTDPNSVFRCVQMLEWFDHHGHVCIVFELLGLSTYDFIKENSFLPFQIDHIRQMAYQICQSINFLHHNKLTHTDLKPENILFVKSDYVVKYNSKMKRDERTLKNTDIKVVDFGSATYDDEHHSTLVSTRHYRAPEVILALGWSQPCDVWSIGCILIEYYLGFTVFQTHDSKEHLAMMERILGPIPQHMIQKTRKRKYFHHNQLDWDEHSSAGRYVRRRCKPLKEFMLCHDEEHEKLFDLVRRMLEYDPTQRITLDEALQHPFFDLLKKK

CPK1 (P.falciparum) = system: CPK1 (P.falciparum)
CSNK1E (human) = CSNK1E (human) (UniProt P49674)
Chain of CSNK1E (human) (P49674 whole entry, looked up): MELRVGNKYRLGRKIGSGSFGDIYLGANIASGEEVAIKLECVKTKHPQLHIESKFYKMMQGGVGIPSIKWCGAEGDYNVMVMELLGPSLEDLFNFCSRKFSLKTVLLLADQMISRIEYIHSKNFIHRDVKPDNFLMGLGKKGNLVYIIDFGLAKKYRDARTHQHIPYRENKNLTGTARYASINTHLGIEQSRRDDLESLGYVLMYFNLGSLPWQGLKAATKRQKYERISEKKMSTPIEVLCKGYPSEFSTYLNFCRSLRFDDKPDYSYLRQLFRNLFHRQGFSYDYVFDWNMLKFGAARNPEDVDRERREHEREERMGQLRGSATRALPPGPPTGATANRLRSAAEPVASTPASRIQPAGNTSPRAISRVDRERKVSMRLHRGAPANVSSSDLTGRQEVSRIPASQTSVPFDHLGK

CSNK1G1 (human) = CSNK1G1 (human) (UniProt Q9HCP0)
DMPK (human) = DMPK (human) (UniProt Q09013)
Chain of DMPK (human) (Q09013 whole entry, looked up): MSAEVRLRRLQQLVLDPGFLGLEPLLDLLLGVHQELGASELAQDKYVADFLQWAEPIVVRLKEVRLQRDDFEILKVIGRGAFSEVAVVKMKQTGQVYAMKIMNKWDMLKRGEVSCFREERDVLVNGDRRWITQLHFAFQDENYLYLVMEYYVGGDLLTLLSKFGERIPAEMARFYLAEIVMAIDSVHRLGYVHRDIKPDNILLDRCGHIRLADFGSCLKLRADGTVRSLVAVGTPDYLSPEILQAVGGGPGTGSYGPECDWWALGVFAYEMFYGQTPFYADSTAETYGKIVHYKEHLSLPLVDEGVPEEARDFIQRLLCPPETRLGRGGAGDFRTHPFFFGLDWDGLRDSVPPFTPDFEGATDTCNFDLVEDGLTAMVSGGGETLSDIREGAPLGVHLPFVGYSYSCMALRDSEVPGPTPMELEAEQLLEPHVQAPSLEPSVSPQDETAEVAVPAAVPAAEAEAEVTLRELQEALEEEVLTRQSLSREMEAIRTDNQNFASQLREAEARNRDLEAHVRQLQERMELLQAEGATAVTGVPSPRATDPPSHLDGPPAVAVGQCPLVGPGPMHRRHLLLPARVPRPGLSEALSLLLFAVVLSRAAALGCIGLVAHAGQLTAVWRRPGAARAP

FGFR2 (human) = FGFR2 (human) (UniProt P21802)
FGFR3 (human) = FGFR3 (human) (UniProt P22607)
FLT1 (human) = FLT1 (human) (UniProt P17948)
[1] = system: FLT3 (human), P36888 [N841I]
FLT4 (human) = FLT4 (human) (UniProt P35916)
IKBKB (human) = IKBKB (human) (UniProt O14920)
IRAK1 (human) = IRAK1 (human) (UniProt P51617)
[2] = target: JAK1 JH2 pseudokinase (human) (UniProt P23458)
Chain of JAK1 JH2 pseudokinase (human) (P23458 whole entry, looked up): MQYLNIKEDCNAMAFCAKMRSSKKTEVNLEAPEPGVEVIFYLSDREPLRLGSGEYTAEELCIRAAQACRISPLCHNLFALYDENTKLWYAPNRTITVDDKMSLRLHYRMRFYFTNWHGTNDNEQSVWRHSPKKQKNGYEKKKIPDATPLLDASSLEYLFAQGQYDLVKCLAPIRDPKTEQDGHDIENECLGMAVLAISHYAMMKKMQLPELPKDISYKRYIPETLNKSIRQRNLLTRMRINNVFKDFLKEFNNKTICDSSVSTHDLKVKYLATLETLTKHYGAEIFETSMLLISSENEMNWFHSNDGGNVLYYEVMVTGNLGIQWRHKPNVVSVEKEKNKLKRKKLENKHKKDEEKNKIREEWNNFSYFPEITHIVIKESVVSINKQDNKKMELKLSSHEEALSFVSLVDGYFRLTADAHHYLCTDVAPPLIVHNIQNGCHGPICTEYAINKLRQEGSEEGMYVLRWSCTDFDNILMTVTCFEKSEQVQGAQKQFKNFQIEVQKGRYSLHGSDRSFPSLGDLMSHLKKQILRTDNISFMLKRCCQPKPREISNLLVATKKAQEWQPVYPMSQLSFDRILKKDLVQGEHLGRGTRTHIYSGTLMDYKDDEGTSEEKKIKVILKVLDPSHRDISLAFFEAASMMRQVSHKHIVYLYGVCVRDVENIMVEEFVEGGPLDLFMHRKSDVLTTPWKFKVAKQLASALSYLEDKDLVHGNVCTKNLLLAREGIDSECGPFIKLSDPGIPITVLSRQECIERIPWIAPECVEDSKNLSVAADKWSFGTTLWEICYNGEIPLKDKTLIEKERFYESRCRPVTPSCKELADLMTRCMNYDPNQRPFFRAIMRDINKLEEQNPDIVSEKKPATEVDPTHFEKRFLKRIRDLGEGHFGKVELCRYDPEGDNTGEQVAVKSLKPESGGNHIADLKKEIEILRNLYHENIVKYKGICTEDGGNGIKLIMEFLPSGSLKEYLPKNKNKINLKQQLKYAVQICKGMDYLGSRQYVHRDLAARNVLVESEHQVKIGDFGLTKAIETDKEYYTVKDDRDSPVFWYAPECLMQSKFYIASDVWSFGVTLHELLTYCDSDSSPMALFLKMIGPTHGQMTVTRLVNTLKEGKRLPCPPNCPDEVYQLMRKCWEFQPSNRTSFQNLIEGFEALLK

[3] = system: KIT (human), P10721 [L576P]
MAP2K4 (human) = MAP2K4 (human) (UniProt P45985)
MAP3K13 (human) = MAP3K13 (human) (UniProt O43283)
MAPK14 (human) = MAPK14 (human) (UniProt Q16539)
Chain of MAPK14 (human) (Q16539 whole entry, looked up): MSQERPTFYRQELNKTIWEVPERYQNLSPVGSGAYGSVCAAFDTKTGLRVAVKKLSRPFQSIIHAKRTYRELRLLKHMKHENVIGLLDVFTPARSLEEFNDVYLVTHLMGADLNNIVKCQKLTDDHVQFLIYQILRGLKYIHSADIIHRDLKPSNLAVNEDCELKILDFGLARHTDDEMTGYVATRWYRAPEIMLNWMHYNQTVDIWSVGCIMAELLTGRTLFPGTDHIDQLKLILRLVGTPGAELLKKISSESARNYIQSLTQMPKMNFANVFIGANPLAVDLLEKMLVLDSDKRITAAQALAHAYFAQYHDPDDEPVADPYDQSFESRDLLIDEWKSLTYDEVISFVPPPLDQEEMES

MAPK3 (human) = MAPK3 (human) (UniProt P27361)
Chain of MAPK3 (human) (P27361 whole entry, looked up): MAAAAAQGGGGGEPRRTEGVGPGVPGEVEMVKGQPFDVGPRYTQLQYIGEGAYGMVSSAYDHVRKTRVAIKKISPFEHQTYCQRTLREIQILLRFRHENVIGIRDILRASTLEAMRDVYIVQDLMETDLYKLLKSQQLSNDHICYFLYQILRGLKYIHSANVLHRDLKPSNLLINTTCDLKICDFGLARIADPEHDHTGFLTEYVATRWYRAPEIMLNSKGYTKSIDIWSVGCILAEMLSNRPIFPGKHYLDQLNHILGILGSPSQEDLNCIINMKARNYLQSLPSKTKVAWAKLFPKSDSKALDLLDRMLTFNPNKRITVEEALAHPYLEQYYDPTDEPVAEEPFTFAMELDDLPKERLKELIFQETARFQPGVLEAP

MELK (human) = MELK (human) (UniProt Q14680)
MLTK (human) = MLTK (human) (UniProt Q9NYL2)
MYLK (human) = MYLK (human) (UniProt Q15746)
NUAK2 (human) = NUAK2 (human) (UniProt Q9H093)
PAK1 (human) = PAK1 (human) (UniProt Q13153)
PKN2 (human) = PKN2 (human) (UniProt Q16513)
PRKAA1 (human) = PRKAA1 (human) (UniProt Q13131)
[4] = system: RET (human), P07949 [V804M]
Chain of RET (human), P07949 [V804M] (P07949 whole entry V804M, looked up): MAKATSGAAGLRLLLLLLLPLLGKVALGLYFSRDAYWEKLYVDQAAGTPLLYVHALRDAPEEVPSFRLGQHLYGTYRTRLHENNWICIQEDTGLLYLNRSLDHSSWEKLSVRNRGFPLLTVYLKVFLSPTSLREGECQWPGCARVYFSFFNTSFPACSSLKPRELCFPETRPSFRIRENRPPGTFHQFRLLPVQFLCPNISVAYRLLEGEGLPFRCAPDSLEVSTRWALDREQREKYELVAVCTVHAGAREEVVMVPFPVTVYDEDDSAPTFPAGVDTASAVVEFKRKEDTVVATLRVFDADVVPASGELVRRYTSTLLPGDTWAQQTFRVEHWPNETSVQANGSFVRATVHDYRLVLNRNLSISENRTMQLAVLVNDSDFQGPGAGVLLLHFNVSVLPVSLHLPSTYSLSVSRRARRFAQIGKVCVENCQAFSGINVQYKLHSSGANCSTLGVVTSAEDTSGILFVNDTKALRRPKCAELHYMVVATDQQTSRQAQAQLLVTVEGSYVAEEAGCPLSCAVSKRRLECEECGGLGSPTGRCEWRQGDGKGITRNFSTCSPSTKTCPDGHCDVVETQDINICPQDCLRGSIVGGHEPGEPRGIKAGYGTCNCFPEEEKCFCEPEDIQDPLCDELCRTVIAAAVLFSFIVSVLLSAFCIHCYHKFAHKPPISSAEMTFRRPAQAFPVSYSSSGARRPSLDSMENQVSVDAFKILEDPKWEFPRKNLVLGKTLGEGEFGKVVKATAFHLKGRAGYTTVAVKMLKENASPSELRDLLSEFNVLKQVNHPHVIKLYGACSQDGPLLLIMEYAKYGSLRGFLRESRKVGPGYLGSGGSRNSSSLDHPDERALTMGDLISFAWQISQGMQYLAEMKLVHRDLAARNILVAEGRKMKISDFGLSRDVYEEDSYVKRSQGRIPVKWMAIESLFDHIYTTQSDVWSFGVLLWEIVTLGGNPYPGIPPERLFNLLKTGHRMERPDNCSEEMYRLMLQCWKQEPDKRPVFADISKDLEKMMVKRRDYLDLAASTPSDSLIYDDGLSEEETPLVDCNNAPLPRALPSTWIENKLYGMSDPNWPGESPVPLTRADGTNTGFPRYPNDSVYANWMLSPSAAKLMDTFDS

ROCK1 (human) = ROCK1 (human) (UniProt Q13464)
RPS6KA6 KD1 (human) = RPS6KA6 KD1 (human) (UniProt Q9UK32)
SGK3 (human) = SGK3 (human) (UniProt Q96BR1)
SIK1 (human) = SIK1 (human) (UniProt P57059)
STK32B (human) = STK32B (human) (UniProt Q9NY57)
STK32C (human) = STK32C (human) (UniProt Q86UX6)
STK36 (human) = STK36 (human) (UniProt Q9NRP7)
STK38L (human) = STK38L (human) (UniProt Q9Y2H1)

CNC(=O)c1cc(Oc2ccc(NC(=O)Nc3ccc(Cl)c(C(F)(F)F)c3)cc2)cc[n+]1[O-]
per cent of control (BMPR1A (human)): 91%
per cent of control (CAMK2D (human)): 87%
per cent of control (CAMKK2 (human)): 68%
per cent of control (CDK13 (human)): 40%
per cent of control (CDK14 (human)): 3.8%
per cent of control (CDKL2 (human)): 0.1%
per cent of control (CDKL3 (human)): 0.3%
per cent of control (CLK3 (human)): 100%
per cent of control (CLK4 (human)): 47%
per cent of control (CPK1 (P.falciparum)): 0.15%
per cent of control (CSNK1E (human)): 100%
per cent of control (CSNK1G1 (human)): 96%
per cent of control (DMPK (human)): 91%
per cent of control (FGFR2 (human)): 8.9%
per cent of control (FGFR3 (human)): 32%
per cent of control (FLT1 (human)): 0.65%
per cent of control [1]: 0%
per cent of control (FLT4 (human)): 0%
per cent of control (IKBKB (human)): 61%
per cent of control (IRAK1 (human)): 22%
per cent of control [2]: 96%
per cent of control [3]: 0%
per cent of control (MAP2K4 (human)): 60%
per cent of control (MAP3K13 (human)): 68%
per cent of control (MAPK14 (human)): 0%
per cent of control (MAPK3 (human)): 92%
per cent of control (MELK (human)): 65%
per cent of control (MLTK (human)): 0.85%
per cent of control (MYLK (human)): 100%
per cent of control (NUAK2 (human)): 85%
per cent of control (PAK1 (human)): 100%
per cent of control (PKN2 (human)): 91%
per cent of control (PRKAA1 (human)): 36%
per cent of control [4]: 0%
per cent of control (ROCK1 (human)): 23%
per cent of control (RPS6KA6 KD1 (human)): 97%
per cent of control (SGK3 (human)): 42%
per cent of control (SIK1 (human)): 66%
per cent of control (STK32B (human)): 100%
per cent of control (STK32C (human)): 87%
per cent of control (STK36 (human)): 26%
per cent of control (STK38L (human)): 100%

CNC(=O)c1cc(Oc2ccc(NC(=O)Nc3ccc(Cl)c(C(F)(F)F)c3)cc2)ccn1
per cent of control (BMPR1A (human)): 100%
per cent of control (CAMK2D (human)): 89%
per cent of control (CAMKK2 (human)): 100%
per cent of control (CDK13 (human)): 98%
per cent of control (CDK14 (human)): 3.1%
per cent of control (CDKL2 (human)): 0.05%
per cent of control (CDKL3 (human)): 0.35%
per cent of control (CLK3 (human)): 84%
per cent of control (CLK4 (human)): 30%
per cent of control (CPK1 (P.falciparum)): 0.8%
per cent of control (CSNK1E (human)): 99%
per cent of control (CSNK1G1 (human)): 100%
per cent of control (DMPK (human)): 90%
per cent of control (FGFR2 (human)): 6.4%
per cent of control (FGFR3 (human)): 20%
per cent of control (FLT1 (human)): 0.7%
per cent of control [1]: 0%
per cent of control (FLT4 (human)): 0%
per cent of control (IKBKB (human)): 100%
per cent of control (IRAK1 (human)): 76%
per cent of control [2]: 97%
per cent of control [3]: 0%
per cent of control (MAP2K4 (human)): 85%
per cent of control (MAP3K13 (human)): 88%
per cent of control (MAPK14 (human)): 0.1%
per cent of control (MAPK3 (human)): 95%
per cent of control (MELK (human)): 83%
per cent of control (MLTK (human)): 0.6%
per cent of control (MYLK (human)): 100%
per cent of control (NUAK2 (human)): 100%
per cent of control (PAK1 (human)): 100%
per cent of control (PKN2 (human)): 100%
per cent of control (PRKAA1 (human)): 32%
per cent of control [4]: 0%
per cent of control (ROCK1 (human)): 84%
per cent of control (RPS6KA6 KD1 (human)): 100%
per cent of control (SGK3 (human)): 72%
per cent of control (SIK1 (human)): 79%
per cent of control (STK32B (human)): 100%
per cent of control (STK32C (human)): 72%
per cent of control (STK36 (human)): 16%
per cent of control (STK38L (human)): 95%
